According to publication PMC2797576 (Biochemistry, 2009):
Marks after values point to notes of the source that are not given here.

Key:
W139F-E360W PGDH [1] = molecular target: T1, W139F-E360W PGDH (Escherichia coli, UniProt P0A9T0, E360W/W139F); experiment: Stopped-flow transient kinetics of L-serine binding; design: species or system E. coli; conditions: for k3: estimated from Figure 9; for k2: forward rate constant of conformational change after binding; for k−3: reverse rate constant of conformational change before binding
[2] = molecular target: E. coli D-3-phosphoglycerate dehydrogenase (PGDH), native enzyme (Escherichia coli, UniProt P0A9T0); experiment: Steady-state inhibition of enzymatic activity of native PGDH by L-serine; type: biochemical
W139F-E360W PGDH [3] = molecular target: T1, W139F-E360W PGDH; experiment: Steady-state inhibition of enzymatic activity of W139F-E360W PGDH by L-serine; type: biochemical, E. coli; conditions: W139F-E360W mutant
W139F-E360W PGDH [4] = molecular target: T1, W139F-E360W PGDH; experiment: Steady-state serine binding by tryptophan fluorescence quenching titration; design: species or system E. coli; conditions: 2.5 μM enzyme subunits, fit to Hill equation (eq 11)
[5] = molecular target: E. coli PGDH (native, free of bound NADH) (Escherichia coli, UniProt P0A9T0); experiment: Pre-steady-state stopped-flow analysis of NADH binding; conditions: saturating L-serine versus serine absent

N[C@@H](CO)C(=O)O [L-serine]
k3 (W139F-E360W PGDH [1]; kobs1, printed >0–20): (>0–20 s^−1) ^b | k2 (W139F-E360W PGDH [1]; kobs1): 61 ± 4 s⁻¹ | k−3 (W139F-E360W PGDH [1]; kobs1): 88 ± 7 s⁻¹ | k3 (W139F-E360W PGDH [1]; kobs2, printed >0–2): (>0–2 s^−1) ^b | k2 (W139F-E360W PGDH [1]; kobs2): 161 ± 18 s⁻¹ | k−3 (W139F-E360W PGDH [1]; kobs2): 166 ± 22 s⁻¹ | Hill coefficient for inhibition of enzymatic activity [2]: 1.9 ± 0.1 | Hill coefficient for inhibition of enzymatic activity (W139F-E360W PGDH [3]): 2.2 ± 0.1 | K0.5 for fluorescence quenching (W139F-E360W PGDH [4]): 13.6 ± 0.5 | Increase in the Kd for NADH binding caused by serine, first set of sites [5]: 15 fold | Increase in the Kd for NADH binding caused by serine, other set of sites [5]: 5 fold
